# Reference: US20100278782A1, “DIFFERENTIATION OF RAT LIVER EPITHELIAL CELLS INTO HEPATOCYTE-LIKE CELLS” (Vrije Universiteit Brussel, priority 2006, published 2010)
# Tests used:
# rat hepatocyte HDAC = test: Fluor de Lys HDAC inhibition assay in crude rat hepatocyte lysates; format: biochemical; settings: Fluor de Lys substrate, n = 3 or 4, read-out: Estimated IC50 values for tested compounds
# Protocol: Screening of the HDAC inhibiting potencies of the above compounds was performed in crude rat hepatocyte lysates, prepared from freshly isolated cells, using the Fluor de Lys HDAC inhibition assay as detailed in example 9.
# A two-step collagenase perfusion technique was used to isolate hepatocytes from male outbred Sprague-Dawley rats (200-300 g; Charles River Laboratories, Brussels, Belgium), which were kept under controlled environmental conditions (12 h light-dark cycle) and fed a standard diet (Animalabo A 04) with water ad libitum. Procedures for housing of the animals, and for isolation and cultivation of the rat hepatocytes were approved by the local ethical committee of the Vrije Universiteit Brussel (VUB, Brussels, Belgium).
# Inhibition of HDAC activity was assessed in crude rat hepatocyte lysates by the Fluor de lys HDAC inhibition protocol as outlined herein:
# HDAC Fluorescent Activity Assay/Drug Discovery Kit, Tebu-bio, AK-500.
# • HDAC: thaw a rat hepatocyte cell extract (containing 6 mg/ml proteins) in tap water at room temperature, store on ice. • HDAC inhibitor:
# Prepare a dilution series in assay buffer.
# • Add 500 μl homogenisation buffer to 30×10^6 hepatocytes (pellets stored at −80° C.). • Ultrasonicate on ice 2×30 pulses • Let the homogenate(s) rest on ice during 5 min. • Transfer the homogenate(s) to 1.5 ml eppendorf tube(s) on ice, vortex vigorously. • Centrifugate at 14000 rpm in the microcentrifuge during 5 min at 4° C. • Determine the protein concentration (Bradford protein assay) of the supernatant, discard the pellets. • Dilute the extract(s) to a protein concentration of 6 mg/ml. Divide in aliquots of 500 μl (eppendorf tubes) and store for later use at −80° C.
# 1. bring 10 μl inhibitor/control solvents/assay buffer per well 2. add 15 μl cell extract to each well (for the blank: 15 μl boiled cell extract) 3. incubate 5 min at room temperature (cover plate with aluminium foil) 4. add 25 μl Fluor de Lys substrate to each well (40 μM solution, […]) 5. cover the plate with aluminium foil and incubate 15 min on orbital shaker 6. after 15 min, add 50 μl freshly prepared, ice-cold developer solution to each well 7. cover the plate with aluminium foil and incubate 15 min on orbital shaker 8. Measure the fluorescence in the plate reader
# • Subtract the blank value (boiled extract) (background signal) • Calculate as % of ethanol control, that is set 100% • If the concentrations are spread around the 50% inhibition value, than the IC50 value can be calculated. […] (Note: the concentration should be set out as their logarithmic values)
# RLEC = test: Morphology of RLEC differentiated in the presence of an HDAC inhibitor; format: cell-based, rat
# Protocol: FIG. 15 illustrates morphology of RLEC differentiated in the presence of an HDAC inhibitor, as explained in example 13.
# RLEC at 100% confluence are used for differentiation into hepatocyte-like cells: • after sub-cultivation, detach cells as described above and suspend all cells derived from 1 T75 and 1 T150 in 3 ml and 6 ml of new growth medium (37° C.), respectively. • homogenize the cell suspension by pipetting up and down. • add 420 μl growth medium to a 2 cm^2-well • transfer 80 μl of cell suspension to the middle of a 2 cm^2-well, precoated with 50-100 μg/ml collagen type I • tap to homogenize cell suspension; check cells under microscope • incubate cells at 37° C. in growth medium until cells have reached 100% confluence. • At 100% confluence, remove growth medium and expose cells to basal medium supplemented with liver specific factors, as follows: 1. days 0-1: 10 ng/ml FGF-4 2. days 1-3: 10 ng/ml FGF-4, 20 ng/ml HGF 3. days 3-6: 5 ng/ml FGF-4, 30 ng/ml HGF, 0.5×ITS 4. days 6-9: 30 ng/ml HGF, 0.25×ITS; 0.05 μM dexamethasone 5. days 9-12: 20 ng/ml HGF, 0.05 μM dexamethasone 6. days 12-15: 10 ng/ml HGF; 10 ng/ml OSM, 0.05 μM dexamethasone 7. From day 15 on: 10 ng/ml OSM, 0.05 μM dexamethasone
# RLEC are differentiated without initial FGF-4 exposure, according to the following sequence:
# 1. days 0-3: 20 ng/ml HGF 2. days 3-6: 5 ng/ml FGF-4, 30 ng/ml HGF, 0.5×ITS 3. days 6-9: 30 ng/ml HGF, 0.25×ITS; 0.05 μM dexamethasone 4. days 9-12: 20 ng/ml HGF, 0.05 μM dexamethasone 5. days 12-15: 10 ng/ml HGF; 10 ng/ml OSM, 0.05 μM dexamethasone 6. From day 15 on: 10 ng/ml OSM, 0.05 μM dexamethasone
# The results are illustrated in FIG. 15. […] The cells still have the characteristic RLEC shape. […] Optimisation of HDAC inhibitor concentration to reduce cell death is within the reach of a skilled person.
# HDAC = settings: literature statement; cited from earlier work
# HNF-4 = test: LETF immunofluorescence during hepatic differentiation of RLECs; format: cell-based, rat; settings: TSA added to Sequential 3 differentiation protocol
# Protocol: (§1) A: HNF-3b, B: HNF-4, C: HNF-1a, a: with DAPI counterstain, b: without DAPI counterstain.
# (§2) • rinse cells 3× with PBS • fix nuclear and cytoplasmic proteins at room temperature for 10 min with 4% PFA (cold), connexins at −20° C. for 10 min with Ethanol/Aceton (50/50) and cytoskeletal proteins at −20° C. for 10 min with Ethanol. • wash 3×5 min with PBS • proceed with staining or store wells in PBS at 4° C. • check cells under microscope for autofluorescence and attachment • incubate 15 min with 100 mM glycin in PBS (used to saturate reactive groups generated after PFA fixation) • wash 3×5 min with PBS • incubate 15 min with PBST (permeabilization) • rinse 3× with PBS • block 45 min with block buffer at room temperature • incubate overnight at 4° C. with primary Ab diluted in PBS • rinse with PBS • wash 4×15 min with PBS • incubate with fluorescence-labeled secondary Ab 1 h 30 at room temperature (dilute Ab in PBS) • keep dark • wash 4×15 min with PBST • rinse with distilled water • mount with Vectashield with DAPI (use 3 drops per well)
# (§3) For this experiment, the protocols of example 5 were used to differentiate RLECs towards the hepatic lineage with the exception of the sequential procedure. Sequential 3 from example 6 was used to differentiate the cells instead of the one stated in example 5. The immunofluorescence protocol-staining on cultured cells was used as stated in example 8.
# HNF-3β = test: as above; format: cell-based, rat; settings: TSA added to Sequential 3 differentiation protocol
# Protocol: as §1, §2, §3
# HNF-1α = test: as above; format: cell-based, rat; settings: TSA added to Sequential 3 differentiation protocol
# Protocol: as §1, §2, §3
# primary rat hepatocytes [1] = test: Inhibition of DNA synthesis (3H-methylthymidine incorporation) in EGF-stimulated primary rat hepatocytes; format: cell-based; settings: DNA synthesis at day 3 (72 h), EGF 50 ng/ml
# Protocol: Results are expressed as percentage of positive control (untreated cells cultured in the presence of mitogen). Total inhibition of hepatocyte proliferation is considered when DNA synthesis of treated cells equals DNA synthesis level of negative control (untreated cells cultivated in the absence of mitogen). Results shown are the means±SD from 4 or more independent experiments.
# Screening of the anti-proliferative activity of the above compounds (effect on DNA synthesis) was performed as in example 10a.
# The maximal (100%) inhibition of rat primary hepatocyte proliferation has been achieved with following concentrations:
# Dose-dependent inhibition of cell proliferation by Jung-type HDACi after 3 days of incubation. Hepatocytes (0.4×10^5 cells/cm^2) were cultured in duplicate in a mixture of MEM/M199 (3:1, v/v) and stimulated to proliferate with EGF (50 ng/ml) 4 h after plating. Exposure to the indicated concentrations of HDACi started at time of plating and was maintained for 3 consecutive days. ^3H-methylthymidine incorporation was measured at day 3 (72 h) of culture. Cells cultured in the absence of EGF serve as a negative control for hepatocyte proliferation (neg. contr.) whereas cells stimulated with EGF alone serve as a positive control for hepatocyte proliferation (pos. contr.). Results are expressed as the percentage of maximal incorporation observed in hepatocytes cultured in the presence of EGF alone. Values shown are the means±SD of duplicate cultures of 3 experiments.
# CYP2 B1 = test: Expression of CYP450 isoforms in rat primary hepatocytes; format: cell-based; settings: 4 days exposure; expression lost in untreated controls
# Protocol: (§4) Measured as in example 11b.
# (§5) Furthermore, pro-differentiating effect of AN-6, AN-8 and AN-10 was examined as described in example 11b. Namely, the expression of phase I biotransformation markers, CYP 450 isoforms was examined. […] In comparison, the expression of latter proteins was lost in controls (untreated cells).
# (§6) Hepatocytes (0.57×10^5 cells/cm^2) were cultured in Williams' E medium supplemented with insulin (0.5 μg/ml), glucagon (7 ng/ml) and hydrocortisone (25 μg/ml). Exposure to the indicated concentrations of HDACi started at time of plating and was maintained for 4 consecutive days. Cells were harvested at indicated time points and analyzed for CYP2 B1 and CYP1 A1 expression levels (40 μg proteins/lane).
# primary rat hepatocytes [2] = test: Location of cell cycle arrest in primary rat hepatocytes from cell cycle marker expression; format: cell-based; settings: 3 days incubation; absence of cyclin D1 and cdk1 protein expression, prior to the restriction point
# Excerpt: Assessed as in example 11a.
# The effect of the different 6C-spacer compounds on the expression of key cell cycle proteins was investigated as well in order to identify the location of the cell cycle arrest.
# Two cell cycle markers were studied as detailed in example 11a (see FIG. 8 for results): (a) cyclin D1, this protein is typically expressed when hepatocytes were able to pass the restriction point located in the mid-late G1 phase; and (b) cdk1, which is a marker for the S/G2/M phase (DNA synthesis takes place in the S phase).
# Hepatocytes (0.4×10^5 cells/cm^2) were cultured in duplicate in a mixture of MEM/M199 (3:1; v/v) and stimulated to proliferate with EGF (50 ng/ml) 4 h after plating. Exposure to the indicated concentrations of HDACi started at time of plating and was maintained for 3 consecutive days: Cells were then harvested and analyzed for cyclin D1 and cdk1 expression levels (20 μg proteins/lane). Total ERK staining serves as a loading control.
# [3] = test system: freshly isolated rat hepatocytes; settings: incubated with freshly isolated rat hepatocytes, compared with TSA; cited from earlier work
# CYP1 A1 = test: Expression of CYP450 isoforms in rat primary hepatocytes; format: cell-based; settings: 4 days exposure; expression lost in untreated controls
# Protocol: as §4, §5, §6
Compound,IC50 (rat hepatocyte HDAC),Concentration achieving maximal (100%) inhibition of rat primary hepatocyte proliferation (primary rat hepatocytes [1]),Cell cycle arrest (primary rat hepatocytes [2]),further results
O=C(CCCCNC(=O)c1cc2ccccc2[nH]1)NO [AN-9],313 ± 50 nM,–,–,–
"CC(/C=C/C(=O)NO)=C\[C@@H](C)C(=O)c1ccc(N(C)C)cc1 [TSA, Trichostatin A]",–,–,–,"Morphology of differentiating RLEC (RLEC; 320 nM, D2, example 13 sequence): more polygonal shape; Morphology of differentiating RLEC (RLEC; 1 μM, D9, example 13 sequence): differentiate into binuclear, polygonal to cuboidal shaped cells; Cell death of differentiating RLEC (RLEC; 1 μM, example 13 sequence): causes some cell death; Morphology of differentiating RLEC (RLEC; protocol of example 5 with TSA addition): more fibroblast like shape; HDAC inhibitory activity (HDAC): potent specific inhibitor of Class I and Class II HDAC in vitro and in vivo; HNF-4 expression and activity (HNF-4): expressed and active from D3 onwards, either with or without addition of TSA; HNF-3β expression and localisation (HNF-3β): already expressed at D3 of the differentiation process and is located inside the nucleus; HNF-1α expression and localisation (HNF-1α): induces expression of HNF-1α in nucleus already on D3"
"CN(C)c1ccc(C(=O)NCCCCCC(=O)NO)cc1 [AN-6, 6-(4-dimethylaminobenzoyl)-aminocaproic acid hydroxamid]",24 ± 2 nM,10 µM,induced an early G1 cell cycle arrest,CYP2 B1 expression during the entire culture period (CYP2 B1): remarkable ability to maintain
CN(C)c1ccc(C(=O)NCCCCC(=O)NO)cc1,–,–,–,HDAC inhibitory activity (HDAC): potent HDAC inhibitor; Metabolic stability [3]: metabolically more stable than TSA
O=C(CCCCCNC(=O)c1ccccc1)NO [AN-5],–,50 µM,able to induce a similar early G1 cell cycle arrest,–
O=C(CCCCCNC(=O)c1cc2ccccc2[nH]1)NO [AN-10],14 ± 4 nM,7.5 µM,induced an early G1 cell cycle arrest,CYP1 A1 expression during the entire culture period (CYP1 A1): remarkable ability to maintain
O=C(CCCCCNC(=O)c1ccc(N2CCCCC2)cc1)NO [AN-15],500 ± 108 nM,–,–,–
O=C(CCCCCNC(=O)c1ccc(N2CCCC2)cc1)NO [AN-8],55 ± 19 nM,7.5 µM,induced an early G1 cell cycle arrest,–
O=C(CCCCCNC(=O)c1ccc(Cl)cc1)NO [AN-7],84 ± 27 nM,–,–,–
O=C(CCCCNC(=O)c1ccc(N2CCCCC2)cc1)NO [AN-13],2250 ± 616 nM,–,–,–
O=C(CCCCCNC(=O)c1ccc(N2CCOCC2)cc1)NO [AN-16],1010 ± 310 nM,–,–,–
"CN(C)c1ccc(C(=O)NCCCCC(=O)NO)cc1 [AN-1, 5-(4-dimethylaminobenzoyl)-aminovaleric acid hydroxamid]",301 ± 28 nM,50 µM,–,–
O=C(CCCCNC(=O)c1ccc(N2CCOCC2)cc1)NO [AN-14],4490 ± 1820 nM,–,–,–
